Values after ≈ are worked out from the molar mass of the structure shown. Where two headings read alike, the source gives them in different places.
Key:
[1] = test system: K. pneumoniae strains; test: Minimum bactericidal concentration (MBC); type: cell-based, Klebsiella pneumoniae; settings: for Effect: from MBC/MIC ratio
Procedure: The clinical isolates strains of K. pneumoniae were used in this study belong to the MICOTECA of the Antibacterial and Antifungal Activity Research Laboratory of the Federal University of Paraíba, Brazil, which are: KP-25, KP-26, KP-56, KP-83, KP-87, KP-138, KP-143, KP-166, KP-173, KP-176, KP-260, and KP-326. The American Type Culture Collection strain ATCC-700603 was used as controls. For use in the assays, bacterial suspensions were prepared in 0.9% saline solution, from fresh cultures, and adjusted to the McFarland standard 0.5 scale.
After MIC reading, the A2 minimum bactericidal concentration was determined by removing aliquots from the microdilution plates in the wells corresponding to concentrations equivalent to MIC, 2× MIC, 4× MIC, and 8× MIC and inoculating in new plates containing only culture broth. All controls were performed in parallel. MBC is defined as the lowest concentration capable of causing complete inhibition of bacterial growth after 24 h at 35 ± 2 °C [21, 44].

[2] = test system: K. pneumoniae; test: Effect on bacterial cell integrity (release of 260 nm absorbing material); type: cell-based, Klebsiella pneumoniae; settings: compared to negative control, p ≤ 0.0001
Procedure: The cell integrity can be assessed by releasing intracellular material, mainly nucleotides, which absorb 260 nm wavelengths. The K pneumoniae strains ATCC-700603, KP-26, KP-56, and KP-143 were used to perform this test. First, the bacterial inoculum was incubated in BHI broth (1 × 10^7 CFU/mL) overnight at 35 ± 2 °C. Then, centrifugation was performed at 400× g for 10 min. The cell pellet was washed three times with sterile PBS (phosphate-buffered saline) and resuspended in PBS containing the A2 substance at MIC and 2× MIC concentrations. As a negative control, suspensions that underwent the same procedures, but without treatment with the substance, were used. The tubes corresponding to the MIC were incubated for 10 h at 35 ± 2 °C, and the tubes corresponding to the 2× MIC, for 6 h. After incubation, the suspensions were centrifuged at 400× g for 10 min and the supernatants were read on a spectrophotometer at 260 nm. All analyses were performed in triplicate.

[3] = Hemolytic activity; type: cell-based; settings: human, 0.5% red blood cell suspension
Procedure: The tests were performed according to the recommendations established by the Code of Ethics of the World Medical Association, after approval by the ethics committee of the Centro Universitário de Patos (number: 3621284). Blood samples (types A, B, and O) and smears of oral mucosa were donated by young, healthy adults.
The red blood cell (RBC) samples from blood donors were diluted in 0.9% NaCl at a 1:30 ratio and centrifuged at 2500 rpm for five minutes to obtain the 0.5% suspension free of white blood cells and platelets. Then, the A2 substance was added to the red blood cell suspensions, at 50, 100, 500, and 1000 µg/mL concentrations. As controls, a suspension of red cells without treatment (0% hemolysis) were used as a negative control and a suspension of red cells treated with 1% Triton X-100 (100% hemolysis) as a positive control. The assay was incubated for one hour at 22 ± 2 °C. After that time, the samples were centrifuged at 700× g for 5 min and hemolysis was quantified by spectrophotometry at a wavelength of 540 nm.

[4] = test system: oral mucosa cells; test: Genotoxic effects on oral mucosa cells; type: cell-based, human; settings: for Binucleation / Karyolysis / Karyorrhexis / Micronucleus / Normal: 30 min ex vivo
Procedure: The tests were performed according to the recommendations established by the Code of Ethics of the World Medical Association, after approval by the ethics committee of the Centro Universitário de Patos (number: 3621284). Blood samples (types A, B, and O) and smears of oral mucosa were donated by young, healthy adults. First, the oral mucosa cells were collected from the donors, which was done with a cyto-brush (smear collector) in the cheek area, and the material obtained was placed in 5 mL of 0.9% NaCl. As controls, cells treated with hydrogen peroxide −0.0005% (positive control) and untreated cells (negative control) were used. The cells were washed twice with saline and centrifuged for 10 min at 400× g and kept in saline. After the third wash, the cells were exposed (ex vivo) to A2 substance at 50, 100, 500, and 1000 µg/mL concentrations for 30 min. The material was centrifuged and the supernatant was discarded before smear preparation. The cells were homogenized in a vortex and placed on the slides at room temperature for drying for 15 min. Then, they were fixed with methanol: acetic acid (3:1) for 15 min and stained with 2% Giemsa.

With `O=C(CCl)Nc1ccc(F)c([N+](=O)[O-])c1` [A2, 2-chloro-N-(4-fluoro-3-nitrophenyl)acetamide] the MBC ([1]; Klebsiella pneumoniae, ATCC700603, strain ATCC-700603, read-out: MBC) was 512 µg/mL (≈ 2200 µM), the MBC ([1]; Klebsiella pneumoniae, all K. pneumoniae strains used in this study, read-out: MBC) was 512 µg/mL (≈ 2200 µM) and the “mode of action (bactericidal / bacteriostatic)” value ([1]; all K. pneumoniae strains, from the MIC) was “bactericidal”. The Effect ([1]; strain ATCC-700603) was “Bactericide (bactericidal activity when the ratio between MBC and MIC is ≤4)”, the MBC ([1]; strain KP-25) was 512 µg/mL (≈ 2200 µM) and the Effect ([1]; strain KP-25) was “Bactericide (bactericidal activity when the ratio between MBC and MIC is ≤4)”. The MBC ([1]; strain KP-26) was 512 µg/mL (≈ 2200 µM), the Effect ([1]; strain KP-26) was “Bactericide (bactericidal activity when the ratio between MBC and MIC is ≤4)” and the MBC ([1]; strain KP-56) was 512 µg/mL (≈ 2200 µM). For the same molecule, the Effect ([1]; strain KP-56) was “Bactericide (bactericidal activity when the ratio between MBC and MIC is ≤4)”, the MBC ([1]; strain KP-83) was 512 µg/mL (≈ 2200 µM) and the Effect ([1]; strain KP-83) was “Bactericide (bactericidal activity when the ratio between MBC and MIC is ≤4)”. For the same molecule, the MBC ([1]; strain KP-87) was 512 µg/mL (≈ 2200 µM), the Effect ([1]; strain KP-87) was “Bactericide (bactericidal activity when the ratio between MBC and MIC is ≤4)” and the MBC ([1]; strain KP-138) was 512 µg/mL (≈ 2200 µM). The Effect ([1]; strain KP-138) was “Bactericide (bactericidal activity when the ratio between MBC and MIC is ≤4)”, the MBC ([1]; strain KP-143) was 512 µg/mL (≈ 2200 µM) and the Effect ([1]; strain KP-143) was “Bactericide (bactericidal activity when the ratio between MBC and MIC is ≤4)”. For the same molecule, the MBC ([1]; strain KP-166) was 512 µg/mL (≈ 2200 µM), the Effect ([1]; strain KP-166) was “Bactericide (bactericidal activity when the ratio between MBC and MIC is ≤4)” and the MBC ([1]; strain KP-173) was 512 µg/mL (≈ 2200 µM). The Effect ([1]; strain KP-173) was “Bactericide (bactericidal activity when the ratio between MBC and MIC is ≤4)”, the MBC ([1]; strain KP-176) was 512 µg/mL (≈ 2200 µM) and the Effect ([1]; strain KP-176) was “Bactericide (bactericidal activity when the ratio between MBC and MIC is ≤4)”. For the same molecule, the MBC ([1]; strain KP-260) was 512 µg/mL (≈ 2200 µM), the Effect ([1]; strain KP-260) was “Bactericide (bactericidal activity when the ratio between MBC and MIC is ≤4)” and the MBC ([1]; strain KP-326) was 512 µg/mL (≈ 2200 µM). The Effect ([1]; strain KP-326) was “Bactericide (bactericidal activity when the ratio between MBC and MIC is ≤4)”, the “release of 260 nm absorbing material (cell lysis)” value ([2]; 2× MIC, six hours) was “Cell lysis is also evident” and the “release of 260 nm absorbing material (cytoplasmic contents)” value ([2]; MIC, 10 h of treatment) was “significant release of cytoplasmic contents”. The hemolysis at 1 h ([3]; blood types A, B and O, 50–500 µg/mL, all tested blood types, 1 h at 22 ± 2 °C) was 4 to 20%, the hemolysis at 1 h, 1000 µg/mL ([3]; blood type O, read-out: hemolysis (average erythrocyte lysis)) was 8% and the hemolysis at 1 h, 1000 µg/mL ([3]; blood types A and B, read-out: hemolysis) was 37 to 47%. The Binucleation ([4]; 50 µg/mL) was 0.00%, the Karyolysis ([4]; 50 µg/mL) was 1.00% and the Karyorrhexis ([4]; 50 µg/mL) was 1.00%. It also gave a Micronucleus ([4]; 50 µg/mL) of 0.50%, a Normal ([4]; 50 µg/mL) of 97.50% and a Binucleation ([4]; 100 µg/mL) of 0.00%. The Karyolysis ([4]; 100 µg/mL) was 3.00%, the Karyorrhexis ([4]; 100 µg/mL) was 4.00% and the Micronucleus ([4]; 100 µg/mL) was 0.50%. It also gave a Normal ([4]; 100 µg/mL) of 92.50%, a Binucleation ([4]; 500 µg/mL) of 0.50% and a Karyolysis ([4]; 500 µg/mL) of 4.00%. For the same molecule, the Karyorrhexis ([4]; 500 µg/mL) was 5.00%, the Micronucleus ([4]; 500 µg/mL) was 0.70% and the Normal ([4]; 500 µg/mL) was 86.80%. It also gave a Binucleation ([4]; 1000 µg/mL) of 0.50%, a Karyolysis ([4]; 1000 µg/mL) of 5.00% and a Karyorrhexis ([4]; 1000 µg/mL) of 7.00%. For the same molecule, the Micronucleus ([4]; 1000 µg/mL) was 2.00%, the Normal ([4]; 1000 µg/mL) was 83.50% and the normal cells ([4]; all tested concentrations (50–1000 µg/mL)) was “greater than 80%”. It also gave a melting point of 91 to 93 °C.

Source: paper PMC7504751, “Potential of 2-Chloro-N-(4-fluoro-3-nitrophenyl)acetamide Against Klebsiella pneumoniae and In Vitro Toxicity Analysis” (Molecules, 2020)
